Results as given in PMC12527922, “Cocaine chemogenetics blunts drug-seeking by synthetic physiology” (Nature, 2025).
Several values for one entry are separate records, joined by “and”; a condition that tells them apart may be missing. Equal entries are not always repeated. Where two headings read alike, the source gives them in different places.

Columns and labels:
[1] = estimated from self-administration; cited from earlier work
[2] = biological target: α7–5HT3 mutant chimeric channels (Homo sapiens, UniProt P36544, S170Q); assay: cell-based; format: cell-based, human α7 nAChR LBD, mouse 5HT3 IPD
[3] = biological target: α7–5HT3 mutant chimeric channels (Homo sapiens, UniProt P36544, Q139V); assay: cell-based; format: cell-based, human α7 nAChR LBD, mouse 5HT3 IPD
[4] = biological target: α7–5HT3 mutant chimeric channels (Homo sapiens, UniProt P36544, L131G); assay: cell-based; format: cell-based, human α7 nAChR LBD, mouse 5HT3 IPD
[5] = biological target: α7–5HT3 mutant chimeric channels (Homo sapiens, UniProt P36544, W77F); assay: cell-based; format: cell-based, human α7 nAChR LBD, mouse 5HT3 IPD
[6] = biological target: α7–5HT3 mutant chimeric channels (Homo sapiens, UniProt P36544, Q79A); assay: cell-based; format: cell-based, human α7 nAChR LBD, mouse 5HT3 IPD
[7] = biological target: α7–5HT3 mutant chimeric channels (Homo sapiens, UniProt P36544, L141S); assay: cell-based; format: cell-based, human α7 nAChR LBD, mouse 5HT3 IPD
[8] = biological target: α7–5HT3 mutant chimeric channels (Homo sapiens, UniProt P36544, W77L); assay: cell-based; format: cell-based, human α7 nAChR LBD, mouse 5HT3 IPD
[9] = test system: coca-GlyR in cultured hippocampal neurons; assay: Current-clamp of cultured hippocampal neurons expressing coca-GlyR; format: cell-based, rat
[10] = biological target: coca-5HT3 (α7(L141G,G175K,Y210F,Y217F)–5HT3) (Homo sapiens, UniProt P36544, G175K/L141G/Y210F/Y217F); assay: Membrane potential assay, coca-5HT3 in HEK293; details: for Response / Max normalized Response: coca-5HT3; for Max normalized Response: ED Fig 3b
multiple nAChR subtypes = details: cited from earlier work
coca-GlyR [11] = biological target: T1, coca-GlyR (Homo sapiens, UniProt P23415+P36544, G175K/L141G/Y217F); assay: [^3H]ASEM displacement, membranes of HEK293 cells expressing coca-GlyR; format: binding; details: for Ki: [^3H]ASEM competition, two-site fit
T1 construct: expressed in transfected cells; host or cells: HEK293 (ATCC CRL-1573), pcDNA3.1
Experimental: Cells were suspended in Tris-HCl 50 mM pH 7.4 supplemented with protease inhibitor cocktail (1:100, Sigma-Aldrich). HEK293 cells were disrupted with a 6 Polytron homogenizer (Kinematica). Homogenates were centrifuged at 48,000g (50 min, 4 °C) and washed twice in the same conditions to isolate the membrane fraction. Protein was quantified using the bicinchoninic acid method (Pierce). […] Free and membrane-bound radioligands were separated by rapid filtration of 500 μl aliquots in a 96-well plate harvester (Brandel) and washed with 2 ml of ice-cold Tris-HCl buffer. Microscint-20 scintillation liquid (65 μl per well, PerkinElmer) was added to the filter plates, plates were incubated overnight at room temperature and radioactivity counts were determined in the MicroBeta2 plate counter (PerkinElmer) with an efficiency of 41%. Two-site competition curves were fitted using Prism 10 (GraphPad). Ki values were calculated using the Cheng–Prusoff equation.

coca-GlyR [12] = biological target: T1, coca-GlyR; assay: Whole-cell voltage-clamp in HEK293 cells, coca-GlyR; format: cell-based; details: transfected HEK293
Experimental: Channel mutants and agonists were further characterized in whole-cell voltage-clamp experiments performed on HEK293 cells. At passage 44–48, cells were plated at low density (1 × 10^3 per cm^2) on poly-D-lysine-coated glass coverslips, then transfected in 10 cm^2 wells using the Fugene 6 transfection reagent (Roche) with DNA plasmids containing both an ion channel cDNA (pcDNA3.1, 2 µg per well) and cDNA for GFP (pCMV, 0.1 μg per well), followed by replacement of the medium after 3 h. Recordings were made 24–72 h after transfection.
Electrophysiological recordings were performed in whole-cell voltage-clamp mode, on an inverted fluorescence microscope (Olympus IX-51) using pClamp software and a […] amplifier (Molecular Devices). Electrophysiological data was filtered at 4 kHz, digitized at 10 kHz using a Digidata 1400 interface (Molecular Devices), recorded on a PC (Dell) and analysed using custom MATLAB software (MathWorks). Solutions were delivered from a gravity fed perfusion system through a capillary tube placed approximately […] from the recorded cell using an eight-way manifold pinch valve system (Nanion), which was controlled from the acquisition software. This allowed for up to seven concentrations of agonist to be tested. […]

coca-5HT3 (α7(L141G,G175K,Y210F,Y217F)–5HT3), sequence (P36544 23-224 L141G/G175K/Y210F/Y217F): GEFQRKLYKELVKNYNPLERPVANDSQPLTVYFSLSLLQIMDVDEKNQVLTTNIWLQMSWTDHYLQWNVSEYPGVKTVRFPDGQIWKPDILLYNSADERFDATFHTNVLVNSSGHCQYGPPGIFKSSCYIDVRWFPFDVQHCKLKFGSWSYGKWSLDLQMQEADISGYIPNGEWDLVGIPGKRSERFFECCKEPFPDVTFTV
coca-5HT3 (α7(L141G,G175K,Y210F,Y217F)–5HT3), sequence (P23979 242-489, further chain): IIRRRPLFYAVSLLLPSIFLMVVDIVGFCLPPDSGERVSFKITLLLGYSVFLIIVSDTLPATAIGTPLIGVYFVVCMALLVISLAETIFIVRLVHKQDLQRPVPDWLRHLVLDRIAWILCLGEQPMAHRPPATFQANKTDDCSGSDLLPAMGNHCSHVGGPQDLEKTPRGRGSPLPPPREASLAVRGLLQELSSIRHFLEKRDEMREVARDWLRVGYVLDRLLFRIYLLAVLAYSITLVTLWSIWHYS
T1 sequence (P36544+P23415 fused P36544:L141G/P36544:G175K/P36544:Y217F): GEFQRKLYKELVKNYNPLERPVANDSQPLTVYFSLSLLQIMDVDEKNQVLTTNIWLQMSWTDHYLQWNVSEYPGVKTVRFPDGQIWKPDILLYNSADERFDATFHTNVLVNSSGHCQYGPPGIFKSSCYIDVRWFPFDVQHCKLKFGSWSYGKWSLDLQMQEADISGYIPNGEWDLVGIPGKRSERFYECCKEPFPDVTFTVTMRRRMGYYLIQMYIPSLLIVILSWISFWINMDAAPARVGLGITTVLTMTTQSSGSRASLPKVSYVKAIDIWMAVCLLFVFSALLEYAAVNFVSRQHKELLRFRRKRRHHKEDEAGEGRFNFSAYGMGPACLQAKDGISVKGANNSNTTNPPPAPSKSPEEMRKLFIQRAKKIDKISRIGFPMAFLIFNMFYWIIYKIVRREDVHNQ
α7–5HT3 mutant chimeric channels (Homo sapiens, UniProt P36544, W77L), sequence (P36544 23-224 W77L): as the sequence (P36544 23-224 L141G/G175K/Y210F/Y217F) above, with W55L, G119L, K153G, F188Y, F195Y counted along it
α7–5HT3 mutant chimeric channels (Homo sapiens, UniProt P36544, W77L), sequence (P23979 242-489, further chain): as the sequence (P23979 242-489, further chain) above
α7–5HT3 mutant chimeric channels (Homo sapiens, UniProt P36544, L131G), sequence (P36544 23-224 L131G): as the sequence (P36544 23-224 L141G/G175K/Y210F/Y217F) above, with L109G, G119L, K153G, F188Y, F195Y counted along it
α7–5HT3 mutant chimeric channels (Homo sapiens, UniProt P36544, L131G), sequence (P23979 242-489, further chain): as the sequence (P23979 242-489, further chain) above
α7–5HT3 mutant chimeric channels (Homo sapiens, UniProt P36544, W77F), sequence (P23979 242-489): as the sequence (P23979 242-489, further chain) above
α7–5HT3 mutant chimeric channels (Homo sapiens, UniProt P36544, W77F), sequence (P36544 23-224 W77F): as the sequence (P36544 23-224 L141G/G175K/Y210F/Y217F) above, with W55F, G119L, K153G, F188Y, F195Y counted along it
α7–5HT3 mutant chimeric channels (Homo sapiens, UniProt P36544, Q79A), sequence (P23979 242-489): as the sequence (P23979 242-489, further chain) above
α7–5HT3 mutant chimeric channels (Homo sapiens, UniProt P36544, Q79A), sequence (P36544 23-224 Q79A): as the sequence (P36544 23-224 L141G/G175K/Y210F/Y217F) above, with Q57A, G119L, K153G, F188Y, F195Y counted along it
α7–5HT3 mutant chimeric channels (Homo sapiens, UniProt P36544, Q139V), sequence (P23979 242-489): as the sequence (P23979 242-489, further chain) above
α7–5HT3 mutant chimeric channels (Homo sapiens, UniProt P36544, Q139V), sequence (P36544 23-224 Q139V): as the sequence (P36544 23-224 L141G/G175K/Y210F/Y217F) above, with Q117V, G119L, K153G, F188Y, F195Y counted along it
α7–5HT3 mutant chimeric channels (Homo sapiens, UniProt P36544, L141S), sequence (P36544 23-224 L141S): as the sequence (P36544 23-224 L141G/G175K/Y210F/Y217F) above, with G119S, K153G, F188Y, F195Y counted along it
α7–5HT3 mutant chimeric channels (Homo sapiens, UniProt P36544, L141S), sequence (P23979 242-489, further chain): as the sequence (P23979 242-489, further chain) above
α7–5HT3 mutant chimeric channels (Homo sapiens, UniProt P36544, S170Q), sequence (P36544 23-224 S170Q): as the sequence (P36544 23-224 L141G/G175K/Y210F/Y217F) above, with G119L, S148Q, K153G, F188Y, F195Y counted along it
α7–5HT3 mutant chimeric channels (Homo sapiens, UniProt P36544, S170Q), sequence (P23979 242-489, further chain): as the sequence (P23979 242-489, further chain) above

COC(=O)[C@H]1[C@@H](OC(=O)c2ccccc2)C[C@@H]2CC[C@H]1N2C [cocaine]
brain cocaine concentrations [1]: 2.5 to 20 µM | EC50 [2]: > 30 µM | EC50 [3]: > 30 µM | EC50 ([3]; read-out: EC50 at a7 5HT3 Q139V, Avg, sheet 1d, Avg): > 30 µM | EC50 [4]: > 30 µM | EC50 ([4]; read-out: EC50 at α75HT3 L131G, sheet 1d, single determinations): > 30 µM | EC50 [5]: > 30 µM | EC50 ([5]; read-out: EC50 at a7 5HT3 W77F, sheet 1d, single determinations): > 30 µM | EC50 [6]: > 30 µM | EC50 ([6]; read-out: EC50 at a7 5HT3 Q79A, sheet 1d, single determinations): > 30 µM | EC50 [7]: > 30 µM | EC50 ([7]; read-out: EC50 at α75HT3 L141S, sheet 1d, single determinations): > 30 µM | EC50 [8]: > 30 µM | EC50 ([8]; read-out: EC50 at a7 5HT3 W77L, Avg, sheet 1d, Avg): > 30 µM | rheobase ([9]; coca-GlyR neurons, 10 uM, single cells): 200 pA | firing in response to current injection ([9]; neurons with coca-GlyR): inhibited | membrane input resistance ([9]; neurons with coca-GlyR): dose-dependent reduction | rheobase ([9]; neurons with coca-GlyR, cocaine 3 and 10 µM): increased | EC50 ([10]; EC50 at a75HT3 L141G G175K Y210F Y217F, AVG, sheet 1e): 1580 nM | EC50 ([10]; EC50 at a75HT3 L141G G175K Y210F Y217F, sheet 1e, single determinations): 1800 nM and 1000 nM and 2640 nM and 810 nM and 1250 nM and 840 nM and 2800 nM | Response ([10]; conc 0.0137 uM, ED Fig. 2c): 0.067 | Response ([10]; conc 0.0137174 uM, ED Fig. 2b): 0.067 | Response ([10]; conc 0.123 uM, ED Fig. 2c): 0.063 | Response ([10]; conc 0.123457 uM, ED Fig. 2b): 0.063 | Max normalized Response ([10]; conc 0.137 uM): 0.07313 | Response ([10]; conc 0.37 uM, ED Fig. 2c): 0.098 | Response ([10]; conc 0.37037 uM, ED Fig. 2b): 0.098 | Response ([10]; conc 0.457247 uM, ED Fig 3a): 0.103 | Response ([10]; conc 1.11111 uM, ED Fig. 2b): 0.363 | Response ([10]; conc 1.37174 uM, ED Fig 3a): 0.237 | Response ([10]; conc 3.33333 uM, ED Fig. 2b): 0.825 | Max normalized Response ([10]; conc 3.7 uM): 0.5001 | Response ([10]; conc 10 uM, ED Fig. 2b): 1.02 | Response ([10]; conc 10 uM, ED Fig. 2c): 1.023 | Max normalized Response ([10]; conc 11.1 uM): 0.7653 | Response ([10]; conc 12.3457 uM, ED Fig 3a): 1.106 | Response ([10]; conc 30 uM, ED Fig. 2b): 0.86 | Response ([10]; conc 30 uM, ED Fig. 2c): 0.864 | Max normalized Response ([10]; conc 33.3 uM): 0.8419 | Response ([10]; conc 37.037 uM, ED Fig 3a): 0.885 | Max normalized Response ([10]; conc 100 uM): 0.9656 | EC50 ([10]; half-maximum effective concentration (EC50), HEK293, fluorescence membrane potential assay): 1500 ± 300 nM | peak brain cocaine concentration relative to EC50 for coca-5HT3 ([10]; intravenous dose in rats, Pan et al 1991): approximately 1.5 fold | activity at nAChR subtypes (multiple nAChR subtypes): low-affinity antagonist | binding to coca-GlyR (coca-GlyR [11]): biphasic manner | Ki (coca-GlyR [11]; KiH): 0.014 ± 0.01 nM | Ki (coca-GlyR [11]; KiL): 850 ± 500 nM | high-affinity binding sites (coca-GlyR [11]; biphasic competition curve, [^3H]ASEM): 37.9 ± 0.5% | currents from coca-GlyR (coca-GlyR [12]): large, sustained currents
